Measurements reported in ChEMBL document CHEMBL1143526, “Benzothiazolium compounds: novel classes of inhibitors that suppress the nitric oxide production in RAW264.7 cells stimulated by LPS/IFNgamma” (Bioorg Med Chem Lett, 2005).

Tests used:
[1] = system: RAW264.7; assay: Suppression of nitric oxide production in the LPS/IFN gamma stimulated RAW264.7 cells; assay type: functional, cell-based; settings: Mus musculus
[2] = system: RAW264.7; assay: Inhibition of LPS/IFN gamma stimulated RAW264.7 cells determined by MTS assay; assay type: functional; settings: Mus musculus

Row | SMILES | IC50 [1] | GI50 [2]
1 | CC[n+]1c(/C=C/c2ccc(N(C)C)cc2)sc2cc(NC(C)=O)ccc21 | 3.31 µM | > 10 µM
2 | CC[n+]1c(/C=C/c2ccc(N(C)C)cc2)sc2cc(C)ccc21 | 2.27 µM | > 10 µM
3 | CCC(/C=C1\Sc2ccc(Cl)cc2N1CC)=C\c1sc2ccc(Cl)cc2[n+]1CC | 0.741 µM | 9 µM
4 | CCN1C(=Cc2sc3ccccc3[n+]2C)C=Cc2ccc(C)cc21 | 0.444 µM | > 10 µM
5 | NC(=C\c1sc2ccccc2[n+]1CCCS(=O)(=O)O)/C=C1\Sc2ccccc2N1CCCS(=O)(=O)O | 51.9 µM | > 10 µM
6 | CC[n+]1c(/C=C(/C)SC)sc2ccc(OC)cc21 | 18.4 µM | > 10 µM
7 | CCN1/C(=C/c2sc3ccccc3[n+]2CC)C=Cc2ccc(C)cc21 | 0.183 µM | > 10 µM
8 | CCCC[n+]1c(C=C2C=Cc3ccccc3N2CC)sc2ccccc21 | 0.215 µM | 5.5 µM
9 | CCN1/C(=C/C(=C/c2sc3ccccc3[n+]2CC)OC)Sc2ccccc21 | 0.461 µM | > 10 µM
10 | CN(C)c1ccc(/C=C/c2sc3ccc4ccccc4c3[n+]2C)cc1 | 2.16 µM | > 10 µM
11 | CC[n+]1c(/C=C2\C=Cc3ccc(C)cc3N2C)sc2ccccc21 | 0.253 µM | > 10 µM
12 | CCN1/C(=C/c2sc3ccccc3[n+]2CC)Sc2ccccc21 | 0.403 µM | > 10 µM
13 | CCC(/C=C1\Sc2ccccc2N1C)=C\c1sc2ccccc2[n+]1C | 0.055 µM | 5.5 µM
14 | CCN1C(=Cc2sc3ccc(OC)cc3[n+]2CC)C=Cc2ccccc21 | 1.06 µM | 9.3 µM
15 | CN(C)c1ccc(/C=C/c2sc3ccccc3[n+]2C)cc1 | 4.8 µM | > 10 µM
16 | CC[n+]1c(/C=C/c2ccc(N(C)C)cc2)sc2ccccc21 | 4.94 µM | > 10 µM
17 | CCN1/C(=C/c2sc3ccc(I)cc3[n+]2CC)C=Cc2ccccc21 | 0.259 µM | > 10 µM
18 | CC[n+]1c(/C=C/c2ccc(N(C)C)cc2)sc2ccc(C(=O)OC)cc21 | 10.8 µM | > 10 µM
19 | CCN1/C(=C/c2sc3cc(C)c(C)cc3[n+]2CC)C=Cc2ccccc21 | 0.258 µM | 5.8 µM
20 | O=S(=O)(O)CCCN1/C(=C/c2sc3ccccc3[n+]2CCCS(=O)(=O)O)C=Cc2ccccc21 | 64.6 µM | > 10 µM
21 | CCN1/C(=C/c2sc3ccccc3[n+]2CC)C=Cc2cc(NC(C)=O)ccc21 | 13.3 µM | > 10 µM
22 | CC[n+]1c(/C=C/c2ccc(N(C)C)cc2)sc2ccc(C)cc21 | 2.33 µM | > 10 µM

More lines, in order of falling IC50 [1], values ahead:

Row | IC50 [1] | SMILES | GI50 [2]
23 | 69.5 µM | COc1ccc2sc(/C=C(\C)SC)[n+](CCCS(=O)(=O)[O-])c2c1 | > 10 µM
24 | 66.1 µM | CC/C(=C\c1sc2ccc(OC)cc2[n+]1CCCS(=O)(=O)[O-])SC | > 10 µM
25 | 44.8 µM | CC[n+]1c(/C=C(\C)Nc2ccccc2)sc2ccccc21 | > 10 µM
26 | 27.2 µM | CC[n+]1c(/C=C2\C=Cc3ccc(C)cc3N2CCCS(=O)(=O)O)sc2ccccc21 | > 10 µM
27 | 24.2 µM | CC[n+]1c(/C=C(/C)SC)sc2ccccc21 | > 10 µM
28 | 20.2 µM | CC(/C=C1\Sc2ccccc2N1CCO)=C\c1sc2ccccc2[n+]1CCO | > 10 µM
29 | 11.5 µM | CC[n+]1c(/C=C2\Sc3ccccc3N2CCC(=O)O)sc2ccccc21 | > 10 µM
30 | 10.7 µM | CC[n+]1c(C=C2Sc3ccccc3N2CCO)sc2ccccc21 | > 10 µM
31 | 7.61 µM | CC[n+]1c(/C=C(\C)NCc2ccccc2)sc2ccccc21 | > 10 µM
32 | 5.78 µM | CCC(/C=C1\Sc2ccccc2N1CCCS(=O)(=O)O)=C\c1sc2ccccc2[n+]1CC | > 10 µM
33 | 4.69 µM | CN1/C(=C/c2sc3ccccc3[n+]2C)Sc2ccccc21 | > 10 µM
34 | 3.99 µM | CC/C(=C\c1sc2ccc(OC)cc2[n+]1CC)SC | > 10 µM
35 | 3.64 µM | CC/C(=C/c1sc2ccc(OC)cc2[n+]1CC)SC | > 10 µM
36 | 0.847 µM | CCN1/C(=C/C(N)=C/c2sc3ccccc3[n+]2CC)Sc2ccccc21 | > 10 µM
37 | 0.684 µM | CCN1/C(=C/c2sc3cc(OC)c(OC)cc3[n+]2CC)C=Cc2ccccc21 | > 10 µM
38 | 0.662 µM | CN1/C(=C/C(=C/c2sc3ccccc3[n+]2C)C2CCC2)Sc2ccccc21 | 6.5 µM
39 | 0.637 µM | CCN1/C(=C/C(=C/c2sc3ccccc3[n+]2CC)SC)Sc2ccccc21 | > 10 µM
40 | 0.402 µM | CCC(/C=C1\Sc2ccc(Cl)cc2N1C)=C\c1sc2ccc(Cl)cc2[n+]1C | 7.9 µM
41 | 0.318 µM | CCN1C(=Cc2sc3ccccc3[n+]2C)C=Cc2cccc(C)c21 | > 10 µM
42 | 0.295 µM | CCN1/C(=C/c2sc3ccc(C)cc3[n+]2CC)C=Cc2ccccc21 | > 10 µM
43 | 0.288 µM | CCCN1/C(=C/c2sc3ccccc3[n+]2CC)C=Cc2ccccc21 | > 10 µM
44 | 0.244 µM | CCN1/C(=C/c2sc3ccccc3[n+]2CC)C=Cc2ccccc21 | > 10 µM
45 | 0.241 µM | CCN1/C(=C/c2sc3ccc(Br)cc3[n+]2CC)C=Cc2ccccc21 | > 10 µM
46 | 0.216 µM | CCN1/C(=C/c2sc3ccccc3[n+]2C)C=Cc2ccccc21 | > 10 µM
47 | 0.198 µM | CCN1/C(=C/C(C)=C/c2sc3ccccc3[n+]2CC)Sc2ccccc21 | > 10 µM
48 | 0.178 µM | CC[n+]1c(/C=C2\C=Cc3cc(C)ccc3N2C)sc2ccccc21 | > 10 µM
49 | 0.062 µM | CCC(/C=C1\Sc2ccccc2N1CC)=C\c1sc2ccccc2[n+]1CC | 5.5 µM
